Test results as given in US20110229575A1, “DEEP IMMERSION FLOTATION THERAPY FOR BURN VICTIMS” (priority 2008, published 2011).

Assays:
[1] = Physical properties of F-tert-butylcyclohexane; type: physicochemical
Text: Oxycyte™ is based on the perfluorocarbon F-tert-butylcyclohexane, a saturated alicyctic PFC (molecular formula C10F20) and can be used as a PFC composition in the methods and uses described herein. Physical properties of F-tert-butylcyclohexane are as follows: […]

[2] = Lipophilicity of the PFC; type: physicochemical
Text: Circulation of the perflurocarbon liquid can be employed so that the patient floats without constraints, alleviating pain associated with usual system of treatment. As the liquid is continuously circulated, external heating or cooling of the fluid can be employed in order to maintain a comfort level for the patient. The fluid is preferably filtered to assure a biologically inert and/or sterile liquid environment for the patient. Additionally, a gas mixture containing 0 to 100% oxygen from (with adequate controls and precautions for ultra-ambient levels) is bubbled in the circulating PFC to supply oxygen to the patient's skin. PFCs are excellent transporters of oxygen and carbon dioxide; being that the PFCs are slightly lipophilic at body temperature and would help in the transport of oxygen into and removal of carbon dioxide from the skin tissue, accelerating the healing process.

- Density [1]: 1.97 g/mL
- Kinematic Viscosity [1]: 5.378 cP
- Vapor Pressure ([1]; @25° C.): 3.8 mmHg
- Vapor Pressure ([1]; @37° C.): 4.4 mmHg
- Lipophilicity ([2]; at body temperature): only slightly lipophilic
- Lipophilicity ([2]; at room temperature): not lipophilic
Structure (SMILES): FC(F)(F)C(C(F)(F)F)(C(F)(F)F)C1(F)C(F)(F)C(F)(F)C(F)(F)C(F)(F)C1(F)F [F-tert-butylcyclohexane, perfluoro-tert-butylcyclohexane]
